Data from ChEMBL document CHEMBL4422622, “Identification of Mineralocorticoid Receptor Modulators with Low Impact on Electrolyte Homeostasis but Maintained Organ Protection” (J Med Chem, 2019).
≈ marks a conversion by molar mass, not a printed value.

What was measured:
[1] = Octanol-water partitioning co-efficient, log D of the compound at pH 7.4 by LC/MS/MS analysis; assay type: physicochemical
[2] = biological target: T1, Mineralocorticoid receptor (Homo sapiens, UniProt P08235)
T1 sequence (P08235 whole entry): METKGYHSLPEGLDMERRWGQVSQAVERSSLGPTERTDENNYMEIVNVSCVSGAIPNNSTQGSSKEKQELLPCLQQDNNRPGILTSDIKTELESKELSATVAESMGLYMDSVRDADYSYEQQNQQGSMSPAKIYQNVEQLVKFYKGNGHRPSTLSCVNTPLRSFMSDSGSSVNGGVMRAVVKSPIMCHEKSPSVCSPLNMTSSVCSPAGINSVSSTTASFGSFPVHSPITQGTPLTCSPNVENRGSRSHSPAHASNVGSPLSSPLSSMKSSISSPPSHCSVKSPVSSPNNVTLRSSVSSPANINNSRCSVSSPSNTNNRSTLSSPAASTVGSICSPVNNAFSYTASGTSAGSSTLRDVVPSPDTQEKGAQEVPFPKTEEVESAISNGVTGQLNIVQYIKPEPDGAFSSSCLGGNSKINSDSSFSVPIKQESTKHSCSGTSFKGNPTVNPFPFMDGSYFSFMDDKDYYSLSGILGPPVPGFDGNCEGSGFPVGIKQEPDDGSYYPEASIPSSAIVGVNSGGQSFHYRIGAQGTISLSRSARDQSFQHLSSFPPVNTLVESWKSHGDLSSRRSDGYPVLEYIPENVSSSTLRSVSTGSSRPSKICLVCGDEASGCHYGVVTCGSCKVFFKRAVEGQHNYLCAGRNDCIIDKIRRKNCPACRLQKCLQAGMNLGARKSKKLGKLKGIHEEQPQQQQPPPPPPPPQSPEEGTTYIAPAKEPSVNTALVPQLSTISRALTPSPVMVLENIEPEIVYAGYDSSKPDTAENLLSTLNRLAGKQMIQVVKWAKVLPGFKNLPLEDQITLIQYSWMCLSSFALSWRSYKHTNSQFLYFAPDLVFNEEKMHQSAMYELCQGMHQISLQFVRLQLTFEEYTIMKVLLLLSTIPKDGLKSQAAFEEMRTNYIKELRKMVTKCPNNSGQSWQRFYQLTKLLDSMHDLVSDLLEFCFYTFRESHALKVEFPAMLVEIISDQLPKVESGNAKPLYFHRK
Description: Displacement of [3H]-aldosterone to human mineralocorticoid receptor LBD by radiometric binding assay

[3] = biological target: T1, Mineralocorticoid receptor; remark: listed apart in the source
Description: Antagonist activity at gal4-fused human mineralocorticoid receptor LBD expressed in UAS-MR-bla HEK293 cells by luciferase reporter gene assay

Progesterone receptor = biological target: T2, Progesterone receptor (Homo sapiens, UniProt P06401); test: Binding affinity to recombinant human progesterone receptor LBD by fluormone PL red-fluorescence polarization assay
T2 sequence (P06401 whole entry): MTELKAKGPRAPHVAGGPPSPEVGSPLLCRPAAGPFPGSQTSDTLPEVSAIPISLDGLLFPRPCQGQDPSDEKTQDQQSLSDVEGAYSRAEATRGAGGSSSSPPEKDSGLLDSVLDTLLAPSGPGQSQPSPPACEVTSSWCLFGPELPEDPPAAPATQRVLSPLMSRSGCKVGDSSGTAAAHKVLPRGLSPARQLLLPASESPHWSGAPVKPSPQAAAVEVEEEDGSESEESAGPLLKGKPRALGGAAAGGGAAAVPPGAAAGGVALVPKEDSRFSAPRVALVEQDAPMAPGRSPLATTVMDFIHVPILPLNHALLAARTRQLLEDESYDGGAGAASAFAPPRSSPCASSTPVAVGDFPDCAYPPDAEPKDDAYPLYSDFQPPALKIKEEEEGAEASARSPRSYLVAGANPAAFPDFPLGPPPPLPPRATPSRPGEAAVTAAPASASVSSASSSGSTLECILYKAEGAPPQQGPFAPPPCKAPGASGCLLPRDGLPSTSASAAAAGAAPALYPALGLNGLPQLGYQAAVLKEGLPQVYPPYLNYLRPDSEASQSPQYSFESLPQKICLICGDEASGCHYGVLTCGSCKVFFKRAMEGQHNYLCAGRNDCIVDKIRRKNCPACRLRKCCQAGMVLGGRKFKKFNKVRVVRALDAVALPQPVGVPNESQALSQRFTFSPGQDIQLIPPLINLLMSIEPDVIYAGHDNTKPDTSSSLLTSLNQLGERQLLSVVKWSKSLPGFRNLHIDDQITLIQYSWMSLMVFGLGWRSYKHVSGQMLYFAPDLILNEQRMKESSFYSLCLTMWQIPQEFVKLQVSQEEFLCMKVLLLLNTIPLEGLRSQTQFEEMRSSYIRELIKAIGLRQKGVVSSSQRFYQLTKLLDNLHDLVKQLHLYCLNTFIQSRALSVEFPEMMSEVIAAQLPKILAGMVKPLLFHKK

[4] = Kinetic solubility of compound at pH 7.4 after 24 hrs by shake-flask assay; assay type: physicochemical; conditions: buffer, read-out: -log(solubility) (converted)
[5] = Intrinsic clearance in human liver microsomes at 1 uM measured up to 30 mins in presence of NADPH by LC-MS/MS analysis; assay type: ADME, Microsome; conditions: read-out: CLH
Glucocorticoid receptor = biological target: T3, Glucocorticoid receptor (Homo sapiens, UniProt P04150)
T3 sequence (P04150 whole entry): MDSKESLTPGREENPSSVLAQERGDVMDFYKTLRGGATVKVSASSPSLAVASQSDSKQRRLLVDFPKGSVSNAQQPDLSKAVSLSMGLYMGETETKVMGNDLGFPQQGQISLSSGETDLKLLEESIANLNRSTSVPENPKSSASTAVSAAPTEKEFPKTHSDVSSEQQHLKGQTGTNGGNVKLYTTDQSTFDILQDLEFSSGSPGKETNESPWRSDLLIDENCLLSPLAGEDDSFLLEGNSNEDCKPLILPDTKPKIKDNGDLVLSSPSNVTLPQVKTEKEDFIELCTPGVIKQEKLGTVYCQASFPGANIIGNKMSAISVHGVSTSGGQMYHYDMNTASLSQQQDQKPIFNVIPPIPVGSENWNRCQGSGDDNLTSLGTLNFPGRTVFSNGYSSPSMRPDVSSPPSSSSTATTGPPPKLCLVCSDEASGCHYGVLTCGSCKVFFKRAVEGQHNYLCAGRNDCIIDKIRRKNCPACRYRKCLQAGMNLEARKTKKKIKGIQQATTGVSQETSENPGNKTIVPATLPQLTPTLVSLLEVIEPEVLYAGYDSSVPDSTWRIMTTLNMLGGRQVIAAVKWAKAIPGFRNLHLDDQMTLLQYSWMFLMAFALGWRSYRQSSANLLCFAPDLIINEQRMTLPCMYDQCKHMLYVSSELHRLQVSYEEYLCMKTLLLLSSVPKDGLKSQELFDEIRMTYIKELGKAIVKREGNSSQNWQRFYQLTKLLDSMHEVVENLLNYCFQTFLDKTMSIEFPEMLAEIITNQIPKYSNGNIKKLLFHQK
Description: Binding affinity to recombinant human GR LBD by fluormone GS red-fluorescence polarization assay

[6] = Terminal half life in Han Wistar rat at 1.2 mg/kg, iv by LC-MS/MS analysis; assay type: ADME, organism-based; conditions: in vivo, read-out: beta t1/2 (converted)
[7] = Intrinsic clearance in Han Wistar rat hepatocytes assessed per million cells at 1 uM after 4 hrs by LC/MS/MS analysis; assay type: ADME, cell-based, Hepatocyte; conditions: read-out: CLH
[8] = Fraction unbound in Han Wistar rat plasma at 1 uM after 4 hrs by LC/MS/MS analysis; assay type: ADME, cell-free
Rattus norvegicus = test: Induction of hyperkalemia in Sprague-Dawley rat fed on low salt diet for 72 hrs assessed as increase in Na+/K+ ratio in urine administered via oral gavage after 8 hrs; assay type: organism-based; conditions: in vivo
[9] = Clearance in Han Wistar rat at 1.2 mg/kg, iv by LC-MS/MS analysis; assay type: ADME, organism-based; conditions: in vivo
[10] = Oral bioavailability in Han Wistar rat at 2.1 mg/kg by LC-MS/MS analysis; assay type: ADME, organism-based; conditions: in vivo
[11] = Volume of distribution at steady state in Han Wistar rat at 1.2 mg/kg, iv by LC-MS/MS analysis; assay type: ADME, organism-based; conditions: in vivo, read-out: Vdss

## C[C@H]1CCc2cc(F)ccc2N1C(=O)c1ccc2c(c1)NC(=O)CO2
[1]
  logD: 2.9
[2]
  Ki: 0.126 µM
[3]
  IC50: 0.794 µM
Progesterone receptor
  Ki: > 50.1 µM
[4]
  solubility kinetic at 24 h: 126 µM (≈ 42.8 µg/mL)
[5]
  microsomal CLint at 1 µM: 190 µL/min/mg
Glucocorticoid receptor
  Ki: 2 µM

## C[C@@H]1COc2cc(F)ccc2N1C(=O)c1ccc2c(c1)NC(=O)CO2
[1]
  logD: 2.7
Progesterone receptor
  Ki: > 50.1 µM
[5]
  microsomal CLint at 1 µM: 11 µL/min/mg

## CC(C)C[C@H]1COc2cc(F)ccc2N1C(=O)c1ccc2c(c1)NC(=O)CC2
[1]
  logD: 3.6
[2]
  Ki: 1 µM
[3]
  IC50: 2.51 µM
Progesterone receptor
  Ki: > 50.1 µM
[4]
  solubility kinetic at 24 h: 79.4 µM (≈ 30.4 µg/mL)
[5]
  microsomal CLint at 1 µM: > 300 µL/min/mg
Glucocorticoid receptor
  Ki: 12.6 µM

## C[C@H]1COc2cccnc2N1C(=O)c1ccc2c(c1)NC(=O)CO2
[1]
  logD: 1.3
[2]
  Ki: 1.26 µM
[3]
  IC50: > 10 µM
Progesterone receptor
  Ki: > 50.1 µM
[4]
  solubility kinetic at 24 h: 1000 µM (≈ 325 µg/mL)
[5]
  microsomal CLint at 1 µM: 6 µL/min/mg
Glucocorticoid receptor
  Ki: > 15.8 µM

## O=C1COc2ccc(C(=O)N3c4ccc(F)cc4OC[C@@H]3CCO)cc2N1
[1]
  logD: 1.8
[2]
  Ki: 0.2 µM
[3]
  IC50: 0.501 µM
Progesterone receptor
  Ki: 25.1 µM
[4]
  solubility kinetic at 24 h: 1000 µM (≈ 372 µg/mL)
[5]
  microsomal CLint at 1 µM: 15 µL/min/mg
Glucocorticoid receptor
  Ki: 1.26 µM

## O=C1COc2ccc(C(=O)N3c4ccc(Cl)cc4C[C@@H]3CCO)cc2N1
[1]
  logD: 3.7
[2]
  Ki: > 10 µM
[3]
  IC50: > 10 µM
Progesterone receptor
  Ki: > 50.1 µM
[4]
  solubility kinetic at 24 h: 2 µM (≈ 0.744 µg/mL)
[5]
  microsomal CLint at 1 µM: 40 µL/min/mg
Glucocorticoid receptor
  Ki: > 15.8 µM

## CC(C)C[C@H]1COc2cc(F)ccc2N1C(=O)c1ccc2c(c1)NC(=O)CO2
[1]
  logD: 3.8
[2]
  Ki: 0.002 µM
[3]
  IC50: 0.0631 µM
Progesterone receptor
  Ki: 2.51 µM
[4]
  solubility kinetic at 24 h: 39.8 µM (≈ 15.3 µg/mL)
[5]
  microsomal CLint at 1 µM: > 300 µL/min/mg
Glucocorticoid receptor
  Ki: 0.0501 µM

## O=C(O)C[C@H]1COc2cc(Cl)ccc2N1C(=O)c1ccc2c(c1)NC(=O)CO2
[1]
  logD: -0.5
[2]
  Ki: 0.158 µM
[3]
  IC50: > 10 µM
Progesterone receptor
  Ki: > 50.1 µM
[4]
  solubility kinetic at 24 h: 1000 µM (≈ 403 µg/mL)
[5]
  microsomal CLint at 1 µM: < 3 µL/min/mg
Glucocorticoid receptor
  Ki: 5.01 µM

## O=C1COc2ccc(C(=O)N3CCCc4ccccc43)cc2N1
[1]
  logD: 2.4
[2]
  Ki: 0.631 µM
[3]
  IC50: 2 µM
[4]
  solubility kinetic at 24 h: 50.1 µM (≈ 15.5 µg/mL)
[5]
  microsomal CLint at 1 µM: 27 µL/min/mg

## NCC[C@H]1COc2cc(F)ccc2N1C(=O)c1ccc2c(c1)NC(=O)CO2
[1]
  logD: 0.2
[2]
  Ki: > 10 µM
[3]
  IC50: > 10 µM
Progesterone receptor
  Ki: > 50.1 µM
[4]
  solubility kinetic at 24 h: 50.1 µM (≈ 18.6 µg/mL)
[5]
  microsomal CLint at 1 µM: 12 µL/min/mg
Glucocorticoid receptor
  Ki: > 15.8 µM

## CC1CCc2ccccc2N1S(=O)(=O)c1ccc2c(c1)NC(=O)CO2 (racemic)
[1]
  logD: 3.3
[2]
  Ki: 2 µM
[3]
  IC50: 5.01 µM
[4]
  solubility kinetic at 24 h: 20 µM (≈ 7.15 µg/mL)
[5]
  microsomal CLint at 1 µM: > 300 µL/min/mg

## CC1CCc2ccccc2N1C(=O)c1ccc2c(c1)NC(=O)CO2 (racemic)
[1]
  logD: 2.7
[2]
  Ki: 0.794 µM
[3]
  IC50: 1.58 µM
[4]
  solubility kinetic at 24 h: 50.1 µM (≈ 16.2 µg/mL)
[5]
  microsomal CLint at 1 µM: 128 µL/min/mg

## COC(=O)[C@@H]1CC2=CC(=O)CC[C@]2(C)[C@@]23O[C@@H]2C[C@@]2(C)[C@@H](CC[C@@]24CCC(=O)O4)[C@H]13 [EPLERENONE]
[1]
  logD: 0.8
[6]
  half-life: 1.3 h
[7]
  hepatocyte CLint at 1 µM: 5 µL/min/1e6 cells
[8]
  fraction unbound at 4 h, 1 µM: 0.76
Rattus norvegicus
  Activity: Toxic
[4]
  solubility kinetic at 24 h: 1000 µM (≈ 414 µg/mL)
[5]
  microsomal CLint at 1 µM: 9 µL/min/mg
[9]
  clearance: 17 mL/min/kg
[10]
  bioavailability: 16%
[11]
  Vd: 1 L/kg
